Test results reported in patent publication US12240813B2, “Deuterated tryptamine derivatives and methods of use” (priority 2020, dated 2025).

Experiments:
hrMAO-A = target: T1, hrMAO-A (Homo sapiens, UniProt P21397); assay: Metabolic stability in the presence of hrMAO-A; format: in vitro ADME; details: for MAO, % (half-life as % vs. the related nondeuterated compound) / MAO (metabolized or not): MAO-A; for MAO, % (half-life as % vs. the related nondeuterated compound): values in square brackets are within 10% difference (assay's accuracy), no deuteration effect; for MAO (metabolized or not): last assay time point 120 min; for % Remaining of Initial, 0 min / % Remaining of Initial, 5 min / % Remaining of Initial, 10 min / % Remaining of Initial, 20 min / % Remaining of Initial, 30 min / % Remaining of Initial, 60 min / % Remaining of Initial, 120 min / CLint / Half-life: hrMAO-A; for % Remaining of Initial, 0 min / % Remaining of Initial, 5 min / % Remaining of Initial, 10 min / % Remaining of Initial, 20 min / % Remaining of Initial, 30 min / % Remaining of Initial, 60 min / % Remaining of Initial, 120 min / Half-life: Table 3, four test articles; for CLint: Table 3
T1 construct: purchased XenoTech Lot #8213001
T1 sequence (P21397 1-527): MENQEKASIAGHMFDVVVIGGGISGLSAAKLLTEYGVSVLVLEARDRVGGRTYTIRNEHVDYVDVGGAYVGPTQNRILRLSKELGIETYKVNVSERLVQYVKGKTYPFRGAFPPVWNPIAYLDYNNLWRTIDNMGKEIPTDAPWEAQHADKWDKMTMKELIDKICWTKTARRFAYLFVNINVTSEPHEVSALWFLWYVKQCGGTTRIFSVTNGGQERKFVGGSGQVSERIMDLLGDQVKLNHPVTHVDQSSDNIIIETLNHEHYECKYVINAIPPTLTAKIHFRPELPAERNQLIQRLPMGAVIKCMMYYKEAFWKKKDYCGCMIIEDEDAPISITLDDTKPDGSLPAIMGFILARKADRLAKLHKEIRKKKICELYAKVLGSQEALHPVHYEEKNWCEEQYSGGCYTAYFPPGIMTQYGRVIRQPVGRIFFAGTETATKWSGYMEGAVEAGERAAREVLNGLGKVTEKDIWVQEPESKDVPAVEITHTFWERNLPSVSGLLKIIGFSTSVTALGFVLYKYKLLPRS
Experimental: The reaction mixture was prepared as described below. The co-dosed TAs were added into the reaction mixture at a final concentration of 1 microM each. The positive control, kynuramine (25 microM), was run simultaneously with the TAs in a separate reaction. The reaction mixture (without TAs or kynuramine) was equilibrated in a shaking water bath at 37° C. for 5 minutes. The reaction was initiated by the addition of the TAs or kynuramine, and the mixture was incubated in a shaking water bath at 37° C. Aliquots (100 microL) of the TA reaction mixture were withdrawn at 0, 5, 10, 20, 30, 60, and 120 minutes. Aliquots (100 microL) of the positive control reaction mixture were withdrawn at 0 and 30 minutes. TA and kynuramine samples were immediately combined with 100 microL of ice-cold 100% MeCN containing 0.1% formic acid and IS to terminate the reaction. The samples were then mixed and centrifuged to precipitate proteins. All TA samples were assayed by LC-HRAMS. The PARR (analyte to IS) at each time point was compared to the PARR at time 0 to determine the percent remaining at each time point. Reaction composition: hrMAO 0.02 mg/mL; Potassium Phosphate, pH 7.4 100 mM; Magnesium Chloride 5 mM; Test Articles (each) 1 microM.

rat liver microsomes = assay: Metabolic stability in rat liver microsomes (RLM); details: RLM; for RLM, % (half-life as % vs. the related nondeuterated compound): values in square brackets are within 10% difference (assay's accuracy), no deuteration effect; for RLM (metabolized or not): last assay time point 120 min; for % Remaining of Initial, 0 min / % Remaining of Initial, 5 min / % Remaining of Initial, 10 min / % Remaining of Initial, 20 min / % Remaining of Initial, 30 min / % Remaining of Initial, 60 min / % Remaining of Initial, 120 min: Table 2, four test articles

| SMILES | MAO, % (half-life as % vs. the related nondeuterated compound) (hrMAO-A) | RLM, % (half-life as % vs. the related nondeuterated compound) (rat liver microsomes) | RLM (metabolized or not) (rat liver microsomes) | also measured |
| --- | --- | --- | --- | --- |
| [2H]C([2H])([2H])C([2H])([2H])NC([2H])([2H])C([2H])([2H])c1c[nH]c2ccccc12 | 166% | 159% |  |  |
| [2H]C([2H])([2H])Oc1ccc2[nH]cc(C([2H])([2H])C([2H])([2H])N(C([2H])([2H])[2H])C([2H])([2H])[2H])c2c1 | 372% | 299% |  |  |
| [2H]C([2H])(NC)C([2H])([2H])c1c[nH]c2ccccc12 | 622% | 189% |  |  |
| CCNCCc1c[nH]c2cccc(O)c12 [reference compound] |  |  | R |  |
| CCN(CC)CCc1c[nH]c2ccccc12 [reference compound] |  |  | R |  |
| [2H]C([2H])(c1c[nH]c2ccc(O)cc12)C([2H])([2H])N(C)CC | 179% | 144% |  |  |
| CCN(C)CCc1c[nH]c2ccc(O)cc12 [reference compound] |  |  | R | MAO (metabolized or not) (hrMAO-A): R |
| [2H]c1[nH]c2c([2H])c([2H])c([2H])c(O)c2c1CCN(C(C)C)C(C)C |  | 167% |  |  |
| [2H]C([2H])(c1c[nH]c2cccc(OC)c12)C([2H])([2H])N(C)C | 325% | 190% |  |  |
| CCN(C)CCc1c[nH]c2cccc(OC)c12 [reference compound] |  |  | R | MAO (metabolized or not) (hrMAO-A): R |
| [2H]C([2H])(c1c[nH]c2ccc(O)cc12)C([2H])([2H])N(CC)CC |  | [106] % |  |  |
| CCNCCc1c[nH]c2ccccc12 [reference compound] |  |  | R | MAO (metabolized or not) (hrMAO-A): R |
| [2H]C([2H])([2H])Oc1ccc2[nH]cc(CCN(C)C)c2c1 | [109] % | 151% |  |  |
| [2H]C([2H])(Cc1c[nH]c2cccc(OC)c12)N(C)C | 335% | 185% |  |  |
| CC(C)NCCc1c[nH]c2ccccc12 [reference compound] |  |  | R |  |
| [2H]C([2H])(Cc1c[nH]c2ccccc12)N(C)C [DMT-d2] |  |  |  | % Remaining of Initial, 0 min (hrMAO-A): 100%; % Remaining of Initial, 5 min (hrMAO-A): 106%; % Remaining of Initial, 10 min (hrMAO-A): 111%; % Remaining of Initial, 20 min (hrMAO-A): 101%; % Remaining of Initial, 30 min (hrMAO-A): 97.5%; % Remaining of Initial, 60 min (hrMAO-A): 76.0%; % Remaining of Initial, 120 min (hrMAO-A): 59.1%; CLint (hrMAO-A): 0.126 mL/min/mg protein; Half-life (hrMAO-A): > 2 h; % Remaining of Initial, 0 min (rat liver microsomes): 100%; % Remaining of Initial, 5 min (rat liver microsomes): 67.5%; % Remaining of Initial, 10 min (rat liver microsomes): 56.6%; % Remaining of Initial, 20 min (rat liver microsomes): 48.8%; % Remaining of Initial, 30 min (rat liver microsomes): 43.3%; % Remaining of Initial, 60 min (rat liver microsomes): 32.0%; % Remaining of Initial, 120 min (rat liver microsomes): 21.5% |
| [2H]C([2H])(c1c[nH]c2ccc(O)cc12)C([2H])([2H])N(C)C | 418% | 136% |  |  |
| [2H]C([2H])(c1c[nH]c2ccccc12)C([2H])([2H])N(CC=C)CC=C |  | [106] % |  |  |
| [2H]c1[nH]c2c([2H])c([2H])c([2H])c([2H])c2c1C([2H])([2H])C([2H])([2H])N(C)C | 551% | 243% |  |  |
| [2H]C([2H])(c1c[nH]c2ccccc12)C([2H])([2H])N(C)C [DMT-d4] |  |  |  | % Remaining of Initial, 0 min (hrMAO-A): 100%; % Remaining of Initial, 5 min (hrMAO-A): 106%; % Remaining of Initial, 10 min (hrMAO-A): 111%; % Remaining of Initial, 20 min (hrMAO-A): 102%; % Remaining of Initial, 30 min (hrMAO-A): 98.2%; % Remaining of Initial, 60 min (hrMAO-A): 77.4%; % Remaining of Initial, 120 min (hrMAO-A): 61.4%; CLint (hrMAO-A): 0.119 mL/min/mg protein; Half-life (hrMAO-A): > 2 h; % Remaining of Initial, 0 min (rat liver microsomes): 100%; % Remaining of Initial, 5 min (rat liver microsomes): 70.7%; % Remaining of Initial, 10 min (rat liver microsomes): 59.6%; % Remaining of Initial, 20 min (rat liver microsomes): 51.8%; % Remaining of Initial, 30 min (rat liver microsomes): 46.3%; % Remaining of Initial, 60 min (rat liver microsomes): 34.2%; % Remaining of Initial, 120 min (rat liver microsomes): 23.7% |
| [2H]C([2H])(Cc1c[nH]c2cccc(O)c12)NC | 395% | 154% |  |  |
| [2H]C([2H])(Cc1c[nH]c2ccc(O)cc12)N(C)CC | 173% | 132% |  |  |

| SMILES | MAO, % (half-life as % vs. the related nondeuterated compound) (hrMAO-A) | RLM, % (half-life as % vs. the related nondeuterated compound) (rat liver microsomes) | RLM (metabolized or not) (rat liver microsomes) | also measured |
| --- | --- | --- | --- | --- |
| [2H]C([2H])(Cc1c[nH]c2ccccc12)NC([2H])([2H])C([2H])([2H])[2H] | 170% | 151% |  |  |
| [2H]C([2H])(NC)C([2H])([2H])c1c[nH]c2cccc(O)c12 | 396% | 160% |  |  |
| [2H]C([2H])([2H])NC([2H])([2H])Cc1c[nH]c2cccc(O)c12 | 466% | 163% |  |  |
| [2H]c1[nH]c2c([2H])c([2H])c([2H])c([2H])c2c1CCN([2H])C(C)C |  | 145% |  |  |
| [2H]c1[nH]c2c([2H])c([2H])c(OC)c([2H])c2c1CCN(CC)CC |  | 172% |  |  |
| [2H]C([2H])(c1c[nH]c2ccc(OC)cc12)C([2H])([2H])N(CC)CC |  | [95] % |  |  |
| CC(C)N(CCc1c[nH]c2cccc(O)c12)C(C)C [reference compound] |  |  | R |  |
| C=CCNCCc1c[nH]c2ccccc12 [reference compound] |  |  | R |  |
| [2H]C([2H])(NC(C)C)C([2H])([2H])c1c[nH]c2cccc(O)c12 |  | [108] % |  |  |
| CCN(CC)CCc1c[nH]c2ccc(O)cc12 [reference compound] |  |  | R |  |
| [2H]c1ccc2[nH]c([2H])c(CCN([2H])CC)c2c1O |  |  | R |  |
| [2H]C([2H])(NC(C)C)C([2H])([2H])c1c[nH]c2ccccc12 |  | [106] % |  |  |
| [2H]C([2H])(c1c[nH]c2ccccc12)C([2H])([2H])N(CC)CC |  | [105] % |  |  |
| [2H]C([2H])([2H])C([2H])([2H])NC([2H])([2H])C([2H])([2H])c1c[nH]c2cccc(O)c12 |  | [93] % |  |  |
| CCN(CC)CCc1c[nH]c2cccc(OC)c12 [reference compound] |  |  | R |  |
| [2H]C([2H])(c1c[nH]c2cccc(O)c12)C([2H])([2H])N(C(C)C)C(C)C |  | [97] % |  |  |
| [2H]C([2H])(NCC)C([2H])([2H])c1c[nH]c2cccc(O)c12 |  | [94] % |  |  |
| C=CCN(CC=C)CCc1c[nH]c2ccccc12 [reference compound] |  |  | R |  |
| CCN(CC)CCc1c[nH]c2ccc(OC)cc12 [reference compound] |  |  | R |  |
| CC(C)NCCc1c[nH]c2cccc(O)c12 [reference compound] |  |  | R |  |
| [2H]c1[nH]c2c([2H])c([2H])c([2H])c(O)c2c1CCN([2H])C(C)C |  | 131% |  |  |
